Here are results for six compounds from patent US10111428B2, “Nematocide containing lactonic ring and preparation method and application thereof” (priority 2015, dated 2018).

Converted amounts (≈) assume the structure as drawn.

Data set [1] relates to Nematode eggs. Description: Plant pathogenic nematode inhibition test by dipping: nematode egg hatch inhibition (NY/T 1154.5-2006). Type of data set: in vivo. The conditions noted are these: in vivo. The protocol: A plant pathogenic nematode inhibition test is conducted by dipping with the compounds in Table 1; and by referring to NY/T 1154.5-2006 (Part 5: Dipping Test for Insecticide Ovicidal Activity), the nematode egg hatch inhibition activity of the compounds is tested, as shown in Table 2: […]

Data set [2] concerns Nematode J2. Description: Plant pathogenic nematode inhibition test by dipping: second-stage juveniles. Type of data set: in vivo. The note with it: in vivo.
Data set [3] concerns Earthworm. Description: Earthworm toxicity test (Test Guidelines on Environmental Safety Assessment for Chemical Pesticides). The class given is in vivo. The note with it: cell adds 'low toxicity'. As for the experimental part: (§1) According to the earthworm and edaphon toxicity test procedures as prescribed in the Test Guidelines on Environmental Safety Assessment for Chemical Pesticides, earthworm and edaphon toxicity tests are conducted on compounds 1 to 60 from Table 1. The simulative usual dose of pesticide in the edaphon test is 40 ppm.

Data set [4] deals with Edaphon. The data set can be described thus: Edaphon toxicity test (Test Guidelines on Environmental Safety Assessment for Chemical Pesticides). The conditions noted are these: 15 d; 100 times of usual dose (simulative usual dose 40 ppm); cell adds 'low toxicity'. The protocol:
as §1

What is called LC50 is the concentration that kills 50% of the test population. Low values mean greater toxicity, high ones lower toxicity. As to `O=C1CC(C(=O)OCCC(F)=C(F)F)C(c2ccc(Oc3ccc(F)cc3)cc2)O1` (stereo not drawn) [Compound 55], the LC50 in data set [1] turned out to be 13.24 µg/mL (≈ 31.2 µM); in data set [2] it was 15.36 µg/mL (≈ 36.2 µM). The “Earthworm Toxicity LC50 (14 d)” value in data set [3] was >10, low toxicity mg/L. Also, the “Edaphon Toxicity (15 d) (Inhibition ratio when added amount is 100 times of usual dose)” value in data set [4] is listed as <50%, low toxicity.
With `O=C1CC(C(=O)OCCC(F)=C(F)F)C(c2ccc(OCc3ccc(F)cc3)cc2)O1` (stereo not drawn) [Compound 56], the LC50 in data set [1] is 11.56 µg/mL (≈ 26.4 µM); in data set [2] it was 13.47 µg/mL (≈ 30.7 µM). Moreover, in data set [3], the “Earthworm Toxicity LC50 (14 d)” value is given as >10, low toxicity mg/L. In addition, in data set [4], the “Edaphon Toxicity (15 d) (Inhibition ratio when added amount is 100 times of usual dose)” value was <50%, low toxicity.
Consider `O=C1CC(C(=O)OCCC(F)=C(F)F)C(c2cccc([N+](=O)[O-])c2)O1` (stereo not drawn) [Compound 57], for which the median lethal concentration (LC50) in data set [1] came out at 12.12 µg/mL (≈ 33.7 µM); in data set [2], 14.23 µg/mL (≈ 39.6 µM). In addition, in data set [3], the “Earthworm Toxicity LC50 (14 d)” value was >10, low toxicity mg/L. Further, in data set [4], the “Edaphon Toxicity (15 d) (Inhibition ratio when added amount is 100 times of usual dose)” value is <50%, low toxicity.
Consider `O=C1CC(C(=O)OCCC(F)=C(F)F)C(c2ccc([N+](=O)[O-])cc2)O1` (stereo not drawn) [Compound 58], for which the LC50 in data set [1] worked out at 10.07 µg/mL (≈ 28 µM); in data set [2] it was 12.18 µg/mL (≈ 33.9 µM). Besides, in data set [3], the “Earthworm Toxicity LC50 (14 d)” value is reported as >10, low toxicity mg/L. The “Edaphon Toxicity (15 d) (Inhibition ratio when added amount is 100 times of usual dose)” value in data set [4] is on record as <50%, low toxicity.
As for `Nc1ccccc1C1OC(=O)CC1C(=O)OCCC(F)=C(F)F` (stereo not drawn) [Compound 59], the 50% lethal concentration (LC50) in data set [1] was 11.24 µg/mL (≈ 34.1 µM); in data set [2] it was 13.24 µg/mL (≈ 40.2 µM). Further, in data set [3], the “Earthworm Toxicity LC50 (14 d)” value is >10, low toxicity mg/L. Also, in data set [4], the “Edaphon Toxicity (15 d) (Inhibition ratio when added amount is 100 times of usual dose)” value is <50%, low toxicity.
Turning to `Nc1ccc(C2OC(=O)CC2C(=O)OCCC(F)=C(F)F)cc1` (stereo not drawn) [Compound 60], the results for the LC50 in data set [1] and in data set [2] were 8.40 µg/mL (≈ 25.5 µM) and 10.06 µg/mL (≈ 30.6 µM), respectively. Besides, the “Earthworm Toxicity LC50 (14 d)” value in data set [3] is reported as >10, low toxicity mg/L. In data set [4], the “Edaphon Toxicity (15 d) (Inhibition ratio when added amount is 100 times of usual dose)” value is listed as <50%, low toxicity.
